Results as given in ChEMBL document CHEMBL3046590, “Design and synthesis of some thiazolotriazolyl esters as anti-inflammatory and analgesic agents” (Med Chem Res, 2012).

Columns and labels:
Mus musculus [1] = assay: Anti-inflammatory activity in Mus musculus BALB/c (mouse) assessed as carrageenan-induced paw swelling at 100 mg/kg, po administered 1 hr followed by carrageenan challenge measured at 360 min (reference value: 105 +/- 4.5 x 10^-2 mm); assay type: functional
Mus musculus [2] = assay: Anti-inflammatory activity in Mus musculus BALB/c (mouse) assessed as carrageenan-induced paw swelling at 100 mg/kg, po administered 1 hr followed by carrageenan challenge measured at 90 min (reference value: 39 +/- 5.6 x 10^-2 mm); assay type: functional
Mus musculus [3] = assay: Antioxidant activity in Mus musculus BALB/c (mouse) stomach assessed as TBARS level at 100 mg/kg, po (reference value: 80.4 +/- 5.4 nmol/g ); assay type: functional
Mus musculus [4] = assay: Anti-inflammatory activity in Mus musculus BALB/c (mouse) assessed as inhibition of carrageenan-induced paw swelling at 100 mg/kg, po administered 1 hr followed by carrageenan challenge measured at 180 min relative to control; assay type: functional
Mus musculus [5] = assay: Toxicity in Mus musculus BALB/c (mouse) assessed as mortality at 50 to 200 mg/kg, po after 72 hr; assay type: organism-based; set-up: dose 50-200 mg/kg, route oral; details: in vivo
Mus musculus [6] = assay: Anti-inflammatory activity in Mus musculus BALB/c (mouse) assessed as carrageenan-induced paw swelling at 200 mg/kg, po administered 1 hr followed by carrageenan challenge measured at 180 min (reference value: 52 +/- 4.6 x 10^-2 mm); assay type: functional
Mus musculus [7] = assay: Anti-inflammatory activity in Mus musculus BALB/c (mouse) assessed as carrageenan-induced paw swelling at 100 mg/kg, po administered 1 hr followed by carrageenan challenge measured at 180 min (reference value: 52 +/- 4.6 x 10^-2 mm); assay type: functional
Mus musculus [8] = assay: Anti-inflammatory activity in Mus musculus BALB/c (mouse) assessed as carrageenan-induced paw swelling at 200 mg/kg, po administered 1 hr followed by carrageenan challenge measured at 90 min (reference value: 39 +/- 5.6 x 10^-2 mm); assay type: functional
Mus musculus [9] = assay: Anti-inflammatory activity in Mus musculus BALB/c (mouse) assessed as inhibition of carrageenan-induced paw swelling at 50 mg/kg, po administered 1 hr followed by carrageenan challenge measured at 270 min relative to control; assay type: functional
Mus musculus [10] = assay: Anti-inflammatory activity in Mus musculus BALB/c (mouse) assessed as carrageenan-induced paw swelling at 50 mg/kg, po administered 1 hr followed by carrageenan challenge measured at 360 min (reference value: 105 +/- 4.5 x 10^-2 mm); assay type: functional
Mus musculus [11] = assay: Anti-inflammatory activity in Mus musculus BALB/c (mouse) assessed as carrageenan-induced paw swelling at 100 mg/kg, po administered 1 hr followed by carrageenan challenge measured at 270 min (reference value: 78 +/- 8.4 x 10^-2 mm); assay type: functional
Mus musculus [12] = assay: Anti-inflammatory activity in Mus musculus BALB/c (mouse) assessed as carrageenan-induced paw swelling at 200 mg/kg, po administered 1 hr followed by carrageenan challenge measured at 270 min (reference value: 78 +/- 8.4 x 10^-2 mm); assay type: functional
Mus musculus [13] = assay: Anti-inflammatory activity in Mus musculus BALB/c (mouse) assessed as carrageenan-induced paw swelling at 50 mg/kg, po administered 1 hr followed by carrageenan challenge measured at 180 min (reference value: 52 +/- 4.6 x 10^-2 mm); assay type: functional
Mus musculus [14] = assay: Anti-inflammatory activity in Mus musculus BALB/c (mouse) assessed as carrageenan-induced paw swelling at 50 mg/kg, po administered 1 hr followed by carrageenan challenge measured at 90 min (reference value: 39 +/- 5.6 x 10^-2 mm); assay type: functional
Mus musculus [15] = assay: Toxicity in Mus musculus BALB/c (mouse) assessed as behavioral changes at 50 to 200 mg/kg, po after 72 hr; assay type: organism-based; set-up: dose 50-200 mg/kg, route oral; details: in vivo
Mus musculus [16] = assay: Anti-inflammatory activity in Mus musculus BALB/c (mouse) assessed as carrageenan-induced paw swelling at 200 mg/kg, po administered 1 hr followed by carrageenan challenge measured at 360 min (reference value: 105 +/- 4.5 x 10^-2 mm); assay type: functional
Mus musculus [17] = assay: Anti-inflammatory activity in Mus musculus BALB/c (mouse) assessed as inhibition of carrageenan-induced paw swelling at 200 mg/kg, po administered 1 hr followed by carrageenan challenge measured at 90 min relative to control; assay type: functional
Mus musculus [18] = assay: Anti-inflammatory activity in Mus musculus BALB/c (mouse) assessed as carrageenan-induced paw swelling at 50 mg/kg, po administered 1 hr followed by carrageenan challenge measured at 270 min (reference value: 78 +/- 8.4 x 10^-2 mm); assay type: functional
Mus musculus [19] = assay: Anti-inflammatory activity in Mus musculus BALB/c (mouse) assessed as inhibition of carrageenan-induced paw swelling at 100 mg/kg, po administered 1 hr followed by carrageenan challenge measured at 360 min relative to control; assay type: functional
Mus musculus [20] = assay: Anti-inflammatory activity in Mus musculus BALB/c (mouse) assessed as inhibition of carrageenan-induced paw swelling at 200 mg/kg, po administered 1 hr followed by carrageenan challenge measured at 180 min relative to control; assay type: functional
Mus musculus [21] = assay: Anti-inflammatory activity in Mus musculus BALB/c (mouse) assessed as inhibition of carrageenan-induced paw swelling at 200 mg/kg, po administered 1 hr followed by carrageenan challenge measured at 270 min relative to control; assay type: functional
Mus musculus [22] = assay: Anti-inflammatory activity in Mus musculus BALB/c (mouse) assessed as inhibition of carrageenan-induced paw swelling at 50 mg/kg, po administered 1 hr followed by carrageenan challenge measured at 180 min relative to control; assay type: functional
Mus musculus [23] = assay: Analgesic activity in Mus musculus BALB/c (mouse) assessed as inhibition of acetic acid-induced writhing at 100 mg/kg, po administered 1 hr followed by acetic acid challenge measured for 10 min; assay type: functional
Mus musculus [24] = assay: Anti-inflammatory activity in Mus musculus BALB/c (mouse) assessed as inhibition of carrageenan-induced paw swelling at 50 mg/kg, po administered 1 hr followed by carrageenan challenge measured at 90 min relative to control; assay type: functional
Mus musculus [25] = assay: Anti-inflammatory activity in Mus musculus BALB/c (mouse) assessed as inhibition of carrageenan-induced paw swelling at 100 mg/kg, po administered 1 hr followed by carrageenan challenge measured at 270 min relative to control; assay type: functional
Mus musculus [26] = assay: Anti-inflammatory activity in Mus musculus BALB/c (mouse) assessed as inhibition of carrageenan-induced paw swelling at 100 mg/kg, po administered 1 hr followed by carrageenan challenge measured at 90 min relative to control; assay type: functional
Mus musculus [27] = assay: Anti-inflammatory activity in Mus musculus BALB/c (mouse) assessed as inhibition of carrageenan-induced paw swelling at 50 mg/kg, po administered 1 hr followed by carrageenan challenge measured at 360 min relative to control; assay type: functional
Mus musculus [28] = assay: Anti-inflammatory activity in Mus musculus BALB/c (mouse) assessed as inhibition of carrageenan-induced paw swelling at 200 mg/kg, po administered 1 hr followed by carrageenan challenge measured at 360 min relative to control; assay type: functional
Mus musculus [29] = assay: Anti-inflammatory activity in Mus musculus BALB/c (mouse) assessed as inhibition of carrageenan-induced paw swelling at 10 mg/kg, po administered 1 hr followed by carrageenan challenge measured at 360 min relative to control; assay type: functional
Mus musculus [30] = assay: Anti-inflammatory activity in Mus musculus BALB/c (mouse) assessed as inhibition of carrageenan-induced paw swelling at 10 mg/kg, po administered 1 hr followed by carrageenan challenge measured at 180 min relative to control; assay type: functional
Mus musculus [31] = assay: Anti-inflammatory activity in Mus musculus BALB/c (mouse) assessed as inhibition of carrageenan-induced paw swelling at 10 mg/kg, po administered 1 hr followed by carrageenan challenge measured at 270 min relative to control; assay type: functional
Mus musculus [32] = assay: Anti-inflammatory activity in Mus musculus BALB/c (mouse) assessed as inhibition of carrageenan-induced paw swelling at 10 mg/kg, po administered 1 hr followed by carrageenan challenge measured at 90 min relative to control; assay type: functional

COc1ccc(-c2nnc(S)[nH]2)cc1
Activity (Mus musculus [1]): 133 ×10⁻² mm
Activity (Mus musculus [2]): 33.7 ×10⁻² mm
Activity (Mus musculus [3]): 73.3 nmol/g
inhibition in vivo at 100 mg/kg (Mus musculus [4]): 37.9%
Activity (Mus musculus [5]): Non-toxic
Activity (Mus musculus [6]): 53.2 ×10⁻² mm
Activity (Mus musculus [7]): 32.3 ×10⁻² mm
Activity (Mus musculus [8]): 32.4 ×10⁻² mm
inhibition in vivo at 50 mg/kg (Mus musculus [9]): 17.9%
Activity (Mus musculus [10]): 100 ×10⁻² mm
Activity (Mus musculus [11]): 79.5 ×10⁻² mm
Activity (Mus musculus [12]): 75 ×10⁻² mm
Activity (Mus musculus [13]): 49.7 ×10⁻² mm
Activity (Mus musculus [14]): 59.3 ×10⁻² mm
Activity (Mus musculus [15]): Non-toxic
Activity (Mus musculus [16]): 104.5 ×10⁻² mm
inhibition in vivo at 200 mg/kg (Mus musculus [17]): 16.9%
Activity (Mus musculus [18]): 64.8 ×10⁻² mm

CCOC(=O)c1sc2nc(CCc3cc(OC)c(OC)c(OC)c3)nn2c1C
Activity (Mus musculus [1]): 83.8 ×10⁻² mm
inhibition in vivo at 100 mg/kg (Mus musculus [19]): 20.2%
Activity (Mus musculus [2]): 34.5 ×10⁻² mm
inhibition in vivo at 200 mg/kg (Mus musculus [20]): 25.2%
Activity (Mus musculus [3]): 109.1 nmol/g
inhibition in vivo at 100 mg/kg (Mus musculus [4]): 28.8%
Activity (Mus musculus [5]): Non-toxic
Activity (Mus musculus [6]): 38.9 ×10⁻² mm
Activity (Mus musculus [7]): 37 ×10⁻² mm
Activity (Mus musculus [8]): 32.4 ×10⁻² mm
inhibition in vivo at 200 mg/kg (Mus musculus [21]): 21.9%
inhibition in vivo at 50 mg/kg (Mus musculus [22]): 44.2%
Activity (Mus musculus [10]): 101.4 ×10⁻² mm
Activity (Mus musculus [11]): 63.4 ×10⁻² mm
inhibition in vivo at 100 mg/kg (Mus musculus [23]): 85.9%
Activity (Mus musculus [12]): 60.9 ×10⁻² mm
Activity (Mus musculus [13]): 29 ×10⁻² mm
Activity (Mus musculus [14]): 19.5 ×10⁻² mm
Activity (Mus musculus [15]): Non-toxic
inhibition in vivo at 50 mg/kg (Mus musculus [24]): 50%
Activity (Mus musculus [16]): 92.9 ×10⁻² mm
inhibition in vivo at 100 mg/kg (Mus musculus [25]): 18.7%
Activity (Mus musculus [18]): 73.8 ×10⁻² mm

COc1cc(CCC2=NC(=S)N=N2)cc(OC)c1OC
Activity (Mus musculus [1]): 65.1 ×10⁻² mm
inhibition in vivo at 100 mg/kg (Mus musculus [26]): 28.2%
inhibition in vivo at 100 mg/kg (Mus musculus [19]): 38%
Activity (Mus musculus [2]): 28 ×10⁻² mm
Activity (Mus musculus [3]): 79.1 nmol/g
inhibition in vivo at 100 mg/kg (Mus musculus [4]): 40.8%
Activity (Mus musculus [5]): Non-toxic
Activity (Mus musculus [6]): 50.5 ×10⁻² mm
Activity (Mus musculus [7]): 30.8 ×10⁻² mm
Activity (Mus musculus [8]): 39.7 ×10⁻² mm
Activity (Mus musculus [10]): 84.1 ×10⁻² mm
Activity (Mus musculus [11]): 37.3 ×10⁻² mm
Activity (Mus musculus [12]): 70.3 ×10⁻² mm
Activity (Mus musculus [13]): 48.2 ×10⁻² mm
Activity (Mus musculus [14]): 52.6 ×10⁻² mm
Activity (Mus musculus [15]): Non-toxic
Activity (Mus musculus [16]): 106.7 ×10⁻² mm
inhibition in vivo at 50 mg/kg (Mus musculus [27]): 19.9%
inhibition in vivo at 100 mg/kg (Mus musculus [25]): 52.2%
Activity (Mus musculus [18]): 74.5 ×10⁻² mm

CCOC(=O)Cc1csc2nc(-c3ccc(Cl)cc3)nn12
Activity (Mus musculus [1]): 70 ×10⁻² mm
inhibition in vivo at 100 mg/kg (Mus musculus [19]): 33.3%
Activity (Mus musculus [2]): 43.7 ×10⁻² mm
inhibition in vivo at 200 mg/kg (Mus musculus [20]): 28.5%
Activity (Mus musculus [3]): 157.2 nmol/g
Activity (Mus musculus [5]): Non-toxic
Activity (Mus musculus [6]): 37.2 ×10⁻² mm
Activity (Mus musculus [7]): 52.5 ×10⁻² mm
Activity (Mus musculus [8]): 29.1 ×10⁻² mm
inhibition in vivo at 200 mg/kg (Mus musculus [21]): 24.9%
Activity (Mus musculus [10]): 105 ×10⁻² mm
Activity (Mus musculus [11]): 82.5 ×10⁻² mm
inhibition in vivo at 100 mg/kg (Mus musculus [23]): 38.5%
Activity (Mus musculus [12]): 58.6 ×10⁻² mm
Activity (Mus musculus [13]): 66.1 ×10⁻² mm
Activity (Mus musculus [14]): 61 ×10⁻² mm
Activity (Mus musculus [15]): Non-toxic
Activity (Mus musculus [16]): 86.7 ×10⁻² mm
inhibition in vivo at 200 mg/kg (Mus musculus [28]): 17.4%
inhibition in vivo at 200 mg/kg (Mus musculus [17]): 25.4%
Activity (Mus musculus [18]): 88.5 ×10⁻² mm

COc1ccc2c(c1)c(CC(=O)O)c(C)n2C(=O)c1ccc(Cl)cc1 [INDOMETHACIN]
inhibition in vivo at 10 mg/kg (Mus musculus [29]): 26.7%
inhibition in vivo at 10 mg/kg (Mus musculus [30]): 56.7%
Activity (Mus musculus [5]): Non-toxic
inhibition in vivo at 10 mg/kg (Mus musculus [31]): 34.6%
Activity (Mus musculus [15]): Non-toxic
inhibition in vivo at 10 mg/kg (Mus musculus [32]): 6.9%
